Assay results taken from patent US20240307416A1, “FILM-FORMING COMPOSITIONS COMPRISING SALICYLIC ACID AND METHODS OF USE” (3M INNOVATIVE PROPERTIES COMPANY, priority 2021, published 2024).

Assay: Dissolution of salicylic acid in film-forming gel components
Type: physicochemical

## O=C(O)c1ccccc1O [salicylic acid]
  Solubility of salicylic acid in the silicate tackifying resin and/or the volatile solvent: does not appear to be readily soluble
SPOx added at the end of the manufacture
  Dissolution of salicylic acid in the formulation of U.S. Pat. No. 10,603,405: did not appear dissolve and remained a solid particulate
